Data published in the supplement of paper PMC10307832.

Assays:
Experiment in all cases: relative viability (nuclei count vs DMSO), 5 days (fraction); higher = more cells survive
[1] = tested on: 201T
Outline: (§1)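 Lung cancer cell lines, seeded in 1536-well plates, were treated the following day by pin tool with a single drug or with five library-drug doses (not always all listed) in √10 steps on top of a fixed anchor-drug dose. Cells were fixed and nuclei stained in one step after 5 days, and nuclei were counted. Relative viability is the nuclei count for treated wells divided by that for vehicle wells, reported as medians of duplicate plates.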

[2] = tested on: A-427
Outline: as §1

[3] = tested on: COR-L23
Outline: as §1

[4] = tested on: H3255
Outline: as §1

[5] = tested on: HCC-44
Outline: as §1

[6] = tested on: LCLC-97TM1
Outline: as §1

[7] = tested on: LK-2
Outline: as §1

[8] = tested on: LU99A
Outline: as §1

[9] = tested on: NCI-H1563
Outline: as §1

[10] = tested on: NCI-H1650
Outline: as §1

[11] = tested on: NCI-H1793
Outline: as §1

[12] = tested on: NCI-H1944
Outline: as §1

[13] = tested on: NCI-H2347
Outline: as §1

[14] = tested on: NCI-H23
Outline: as §1

[15] = tested on: NCI-H460
Outline: as §1

[16] = tested on: NCI-H650
Outline: as §1

[17] = tested on: NCI-H727
Outline: as §1

[18] = tested on: NCI-H838
Outline: as §1

[19] = tested on: PC-14
Outline: as §1

[20] = tested on: PC-3 [JPC-3]
Outline: as §1

[21] = tested on: SW 1573
Outline: as §1

## NC(=O)Nc1cc(-c2cccc(F)c2)sc1C(=O)N[C@H]1CCCNC1 [AZD7762] + CS(=O)(=O)CCNCc1ccc(-c2ccc3ncnc(Nc4ccc(OCc5cccc(F)c5)c(Cl)c4)c3c2)o1 [Lapatinib] (partner 2 µM)
[1]; first compound 0.01 µM
  relative viability: 1.03
[1]; first compound 0.03162 µM
  relative viability: 0.99
[1]; first compound 0.1 µM
  relative viability: 1.03
[1]; first compound 0.3162 µM
  relative viability: 1.15
[1]; first compound 1 µM
  relative viability: 1.15
[2]; first compound 0.01 µM
  relative viability: 1.09
[2]; first compound 0.03162 µM
  relative viability: 1.05
[2]; first compound 0.1 µM
  relative viability: 1.07
[2]; first compound 0.3162 µM
  relative viability: 0.938
[2]; first compound 1 µM
  relative viability: 0.716
[3]; first compound 0.01 µM
  relative viability: 1.16
[3]; first compound 0.03162 µM
  relative viability: 1.06
[3]; first compound 0.1 µM
  relative viability: 0.953
[3]; first compound 0.3162 µM
  relative viability: 0.729
[3]; first compound 1 µM
  relative viability: 0.131
[4]; first compound 0.01 µM
  relative viability: 0.316
[4]; first compound 0.03162 µM
  relative viability: 0.256
[4]; first compound 0.1 µM
  relative viability: 0.244
[4]; first compound 0.3162 µM
  relative viability: 0.264
[4]; first compound 1 µM
  relative viability: 0.244
[5]; first compound 0.01 µM
  relative viability: 1.11
[5]; first compound 0.03162 µM
  relative viability: 0.952
[5]; first compound 0.1 µM
  relative viability: 0.998
[5]; first compound 0.3162 µM
  relative viability: 0.932
[5]; first compound 1 µM
  relative viability: 0.99
[6]; first compound 0.01 µM
  relative viability: 0.834
[6]; first compound 0.03162 µM
  relative viability: 1.13
[6]; first compound 0.1 µM
  relative viability: 0.821
[6]; first compound 0.3162 µM
  relative viability: 0.555
[6]; first compound 1 µM
  relative viability: 0.609
[7]; first compound 0.01 µM
  relative viability: 1.02
[7]; first compound 0.03162 µM
  relative viability: 1.03
[7]; first compound 0.1 µM
  relative viability: 0.759
[7]; first compound 0.3162 µM
  relative viability: 0.828
[7]; first compound 1 µM
  relative viability: 0.573
[8]; first compound 0.01 µM
  relative viability: 0.954
[8]; first compound 0.03162 µM
  relative viability: 1.1
[8]; first compound 0.1 µM
  relative viability: 0.952
[8]; first compound 0.3162 µM
  relative viability: 0.789
[8]; first compound 1 µM
  relative viability: 0.416
[9]; first compound 0.01 µM
  relative viability: 0.868
[9]; first compound 0.03162 µM
  relative viability: 1.04
[9]; first compound 0.1 µM
  relative viability: 1.04
[9]; first compound 0.3162 µM
  relative viability: 0.982
[9]; first compound 1 µM
  relative viability: 0.904
[10]; first compound 0.01 µM
  relative viability: 0.747
[10]; first compound 0.03162 µM
  relative viability: 0.852
[10]; first compound 0.1 µM
  relative viability: 0.896
[10]; first compound 0.3162 µM
  relative viability: 0.434
[10]; first compound 1 µM
  relative viability: 0.167
[11]; first compound 0.01 µM
  relative viability: 1.08
[11]; first compound 0.03162 µM
  relative viability: 0.721
[11]; first compound 0.1 µM
  relative viability: 0.805
[11]; first compound 0.3162 µM
  relative viability: 0.874
[11]; first compound 1 µM
  relative viability: 0.261
[12]; first compound 0.01 µM
  relative viability: 0.977
[12]; first compound 0.03162 µM
  relative viability: 0.876
[12]; first compound 0.1 µM
  relative viability: 1.01
[12]; first compound 0.3162 µM
  relative viability: 0.846
[12]; first compound 1 µM
  relative viability: 1.01
[13]; first compound 0.01 µM
  relative viability: 1.11
[13]; first compound 0.03162 µM
  relative viability: 0.986
[13]; first compound 0.1 µM
  relative viability: 1.07
[13]; first compound 0.3162 µM
  relative viability: 0.934
[13]; first compound 1 µM
  relative viability: 1.17
[14]; first compound 0.01 µM
  relative viability: 1.08
[14]; first compound 0.03162 µM
  relative viability: 1.04
[14]; first compound 0.1 µM
  relative viability: 1.18
[14]; first compound 0.3162 µM
  relative viability: 0.508
[14]; first compound 1 µM
  relative viability: 0.3
[15]; first compound 0.01 µM
  relative viability: 1.07
[15]; first compound 0.03162 µM
  relative viability: 0.972
[15]; first compound 0.1 µM
  relative viability: 0.824
[15]; first compound 0.3162 µM
  relative viability: 0.467
[15]; first compound 1 µM
  relative viability: 0.0597
[16]; first compound 0.01 µM
  relative viability: 1.04
[16]; first compound 0.03162 µM
  relative viability: 1.11
[16]; first compound 0.1 µM
  relative viability: 0.813
[16]; first compound 0.3162 µM
  relative viability: 0.747
[16]; first compound 1 µM
  relative viability: 0.827
[17]; first compound 0.01 µM
  relative viability: 0.891
[17]; first compound 0.03162 µM
  relative viability: 0.985
[17]; first compound 0.1 µM
  relative viability: 0.578
[17]; first compound 0.3162 µM
  relative viability: 0.36
[17]; first compound 1 µM
  relative viability: 0.271
[18]; first compound 0.01 µM
  relative viability: 0.917
[18]; first compound 0.03162 µM
  relative viability: 0.908
[18]; first compound 0.1 µM
  relative viability: 1.07
[18]; first compound 0.3162 µM
  relative viability: 0.903
[18]; first compound 1 µM
  relative viability: 0.268
[19]; first compound 0.01 µM
  relative viability: 0.345
[19]; first compound 0.03162 µM
  relative viability: 0.305
[19]; first compound 0.1 µM
  relative viability: 0.348
[19]; first compound 0.3162 µM
  relative viability: 0.256
[19]; first compound 1 µM
  relative viability: 0.299
[20]; first compound 0.01 µM
  relative viability: 0.473
[20]; first compound 0.03162 µM
  relative viability: 0.447
[20]; first compound 0.1 µM
  relative viability: 0.372
[20]; first compound 0.3162 µM
  relative viability: 0.46
[20]; first compound 1 µM
  relative viability: 0.432
[21]; first compound 0.01 µM
  relative viability: 1.29
[21]; first compound 0.03162 µM
  relative viability: 1.23
[21]; first compound 0.1 µM
  relative viability: 1.16
[21]; first compound 0.3162 µM
  relative viability: 1.24
[21]; first compound 1 µM
  relative viability: 1.12
